The values below come from ChEMBL document CHEMBL4622979, “Non-rigid Diarylmethyl Analogs of Baloxavir as Cap-Dependent Endonuclease Inhibitors of Influenza Viruses” (J Med Chem, 2020).

Activity calls are given as the source filed them. The rule behind the calls is not given here.

For data set [1], the system named is Influenza A virus. Kind of data set: Antiviral activity against Influenza A/California/04/2009 (H1N1)pdm09 infected in specific pathogen-free BALB/c mouse assessed as reduction in virus titre in lung at 50 mg/kg, po administered via gavage immediately after infection and at 12 hrs post-infection measured 24 hrs post-infection. In kind it is functional, organism-based.

Data set [2] deals with Influenza A virus. The data set is described as follows: Antiviral activity against Influenza A/California/04/2009 (H1N1)pdm09 infected in specific pathogen-free BALB/c mouse assessed as protection against virus-induced mouse death at 50 mg/kg, po administered via gavage immediately after infection and at 12 hrs post-infection measured on 16 days post-infection relative to control. Type of data set: functional.

A short description of data set [3]: Cmax in CD1 mouse muscle assessed as baloxavir acid level at 15 mg/kg, po administered as single dose measured up to 24 hrs by LC-MS/MS analysis. In kind it is ADME, organism-based, Muscle tissue. Also on record: dose 15 mg/kg, route oral. The following applies: in vivo.
Data set [4] can be described thus: Protein binding in rat plasma at 1 uM measured after 4 hrs by LC-MS/MS analysis. Type of data set: ADME, cell-free. To be noted: read-out: PPB (converted).
Data set [5] can be described thus: Cmax in CD1 mouse lung assessed as baloxavir acid level at 15 mg/kg, po administered as single dose by LC-MS/MS analysis. Type of data set: ADME, organism-based. Details: dose 15 mg/kg, route oral. The following applies: in vivo.
Data set [6] can be described thus: MRTlast in CD1 mouse lung assessed as baloxavir acid level at 15 mg/kg, po administered as single dose measured up to 24 hrs by LC-MS/MS analysis. Type of data set: ADME, organism-based. The following applies: in vivo.
Data set [7] in a line: AUClast in CD1 mouse kidney assessed as baloxavir acid level at 15 mg/kg, po administered as single dose measured up to 24 hrs by LC-MS/MS analysis. In kind it is ADME, organism-based. The following applies: in vivo.
Data set [8] in a line: Stability in simulated intestinal fluid assessed as parent compound remaining at 1 uM measured after 4 hrs at pH 1.2 by LC-MS/MS analysis. In kind it is physicochemical. To be noted: read-out: Stability.
A short description of data set [9]: AUCinfinity in CD1 mouse small intestine assessed as baloxavir acid level at 15 mg/kg, po administered as single dose measured up to 24 hrs by LC-MS/MS analysis. Type of data set: ADME, organism-based. Details: dose 15 mg/kg, route oral, time infinity. The following applies: in vivo.
A short description of data set [10]: Protein binding in human plasma at 1 uM measured after 4 hrs by LC-MS/MS analysis. Type of data set: ADME, cell-free. To be noted: read-out: PPB (converted).
A short description of data set [11]: MRTlast in CD1 mouse plasma assessed as baloxavir acid level at 15 mg/kg, po administered as single dose measured up to 24 hrs by LC-MS/MS analysis. In kind it is ADME, organism-based. To be noted: in vivo.
Data set [12] is described as follows: Toxicity in Influenza A/California/04/2009 (H1N1)pdm09 infected specific pathogen-free BALB/c mouse assessed as effect on body weight at 20 to 50 mg/kg, po administered via gavage immediately after infection and at 12 hrs post-infection measured after 10 days post-infection. Type of data set: organism-based. The following applies: in vivo, 240 h.
The nature of data set [13]: Stability in simulated gastric fluid assessed as parent compound remaining at 1 uM measured after 4 hrs at pH 1.2 by LC-MS/MS analysis. Type of data set: physicochemical. To be noted: read-out: Stability.
Data set [14] has as its system Influenza A virus. Kind of data set: Antiviral activity against Influenza A/California/04/2009 (H1N1)pdm09 infected in specific pathogen-free BALB/c mouse assessed as protection against virus-induced mouse death at 20 mg/kg, po administered via gavage immediately after infection and at 12 hrs post-infection measured on 16 days post-infection relative to control. In kind it is functional.

Data set [15] is described as follows: Cmax in CD1 mouse liver assessed as baloxavir acid level at 15 mg/kg, po administered as single dose measured up to 24 hrs by LC-MS/MS analysis. In kind it is ADME, organism-based. Also on record: dose 15 mg/kg, route oral. The following applies: in vivo.
The nature of data set [16]: Protein binding in mouse plasma at 1 uM measured after 4 hrs by LC-MS/MS analysis. Type of data set: ADME, cell-free. To be noted: read-out: PPB (converted).
Data set [17] can be described thus: AUCinfinity in CD1 mouse liver assessed as (12aR)-12-(Diphenylmethyl)-7-hydroxy-3,4,12,12a-tetrahydro-1H-[1,4]oxazino[3,4-c]pyrido[2,1-f ][1,2,4]triazine-6,8-dione level at 15 mg/kg, po administered as single dose measured up to 24 hrs by LC-MS/MS analysis. Also on record: dose 15 mg/kg, route oral, time infinity. In kind it is ADME, organism-based. To be noted: in vivo.

A short description of data set [18]: Cmax in CD1 mouse plasma assessed as (12aR)-12-(Diphenylmethyl)-7-hydroxy-3,4,12,12a-tetrahydro-1H-[1,4]oxazino[3,4-c]pyrido[2,1-f ][1,2,4]triazine-6,8-dione level at 15 mg/kg, po administered as single dose measured up to 24 hrs by LC-MS/MS analysis. In kind it is ADME, organism-based. Details: dose 15 mg/kg, route oral. To be noted: in vivo.
Data set [19] in a line: Tmax in CD1 mouse small intestine assessed as (12aR)-12-(Diphenylmethyl)-7-hydroxy-3,4,12,12a-tetrahydro-1H-[1,4]oxazino[3,4-c]pyrido[2,1-f ][1,2,4]triazine-6,8-dione level at 15 mg/kg, po administered as single dose measured up to 24 hrs by LC-MS/MS analysis. In kind it is ADME, organism-based. The following applies: in vivo.
The nature of data set [20]: Ratio of free drug level in CD1 mouse blood assessed as (12aR)-12-(Diphenylmethyl)-7-hydroxy-3,4,12,12a-tetrahydro-1H-[1,4]oxazino[3,4-c]pyrido[2,1-f ][1,2,4]triazine-6,8-dione level at 20 mg/kg, po to EC50 for antiviral activity against Influenza A/California/04/2009 (H1N1)pdm09 infected in MDCK cells. To be noted: in vivo. Type of data set: ADME, organism-based.
Data set [21] can be described thus: Cmax in CD1 mouse trachea assessed as (12aR)-12-(Diphenylmethyl)-7-hydroxy-3,4,12,12a-tetrahydro-1H-[1,4]oxazino[3,4-c]pyrido[2,1-f ][1,2,4]triazine-6,8-dione level at 15 mg/kg, po administered as single dose measured up to 24 hrs by LC-MS/MS analysis. Type of data set: ADME, organism-based. Details: dose 15 mg/kg, route oral. To be noted: in vivo.
Data set [22] in a line: AUCinfinity in CD1 mouse small intestine assessed as (12aR)-12-(Diphenylmethyl)-7-hydroxy-3,4,12,12a-tetrahydro-1H-[1,4]oxazino[3,4-c]pyrido[2,1-f ][1,2,4]triazine-6,8-dione level at 15 mg/kg, po administered as single dose measured up to 24 hrs by LC-MS/MS analysis. In kind it is ADME, organism-based. Also on record: dose 15 mg/kg, route oral, time infinity. To be noted: in vivo.

Data set [23] is described as follows: Cmax in CD1 mouse blood assessed as (12aR)-12-(Diphenylmethyl)-7-hydroxy-3,4,12,12a-tetrahydro-1H-[1,4]oxazino[3,4-c]pyrido[2,1-f ][1,2,4]triazine-6,8-dione level at 15 mg/kg, po administered as single dose measured up to 24 hrs by LC-MS/MS analysis. Type of data set: ADME, organism-based. Also on record: dose 15 mg/kg, route oral. To be noted: in vivo.
Data set [24] can be described thus: Acute toxicity in CD1 mouse assessed as effect on food consumption at 2000 mg/kg, po measured for 2 weeks. In kind it is organism-based. To be noted: in vivo, 336 h.
A short description of data set [25]: AUCinfinity in CD1 mouse plasma assessed as (12aR)-12-(Diphenylmethyl)-7-hydroxy-3,4,12,12a-tetrahydro-1H-[1,4]oxazino[3,4-c]pyrido[2,1-f ][1,2,4]triazine-6,8-dione level at 15 mg/kg, po administered as single dose measured up to 24 hrs by LC-MS/MS analysis. Type of data set: ADME, organism-based. Also on record: dose 15 mg/kg, time infinity, route oral. The following applies: in vivo.

Data set [26] is described as follows: AUClast in CD1 mouse plasma assessed as (12aR)-12-(Diphenylmethyl)-7-hydroxy-3,4,12,12a-tetrahydro-1H-[1,4]oxazino[3,4-c]pyrido[2,1-f ][1,2,4]triazine-6,8-dione level at 15 mg/kg, po administered as single dose by LC-MS/MS analysis. Also on record: dose 15 mg/kg, time 0 - last, route oral. Type of data set: ADME, organism-based. To be noted: in vivo.
A short description of data set [27]: Ratio of AUClast in CD1 mouse blood to plasma assessed as (12aR)-12-(Diphenylmethyl)-7-hydroxy-3,4,12,12a-tetrahydro-1H-[1,4]oxazino[3,4-c]pyrido[2,1-f ][1,2,4]triazine-6,8-dione level at 15 mg/kg, po administered as single dose measured up to 24 hrs by LC-MS/MS analysis. In kind it is ADME, organism-based. The following applies: in vivo.

Regarding `COC(=O)OCOc1c2n(ccc1=O)N([C@@H]1c3ccccc3SCc3c1ccc(F)c3F)[C@@H]1COCCN1C2=O` [BALOXAVIR MARBOXIL], the result in data set [1] was Active. The Activity in data set [2] was 90%; in data set [12], “Non-Toxic”; in [14] it was 80%. Also, the Cmax (in general, the highest concentration seen after dosing) in data set [3] is reported as 916 ng/g; in data set [5], 1517 ng/g; in data set [15], 15342 ng/g. For the same molecule, the fraction unbound at 4 h, 1 µM is 0.064 in data set [4], 0.057 in data set [10] and 0.08 in data set [16]. Moreover, the values for the MRTlast in data set [6] and in data set [11] were 4.84 h and 2.57 h, respectively. Also, in data set [7], the AUClast is 21162 ng·h/g. Besides, the results for the remaining at 4 h, 1 µM in [8] and in [13] were 87.9% and 101%, respectively. The AUC in data set [9] was 106028 ng·h/g.
`COC(=O)OCOc1c2n(ccc1=O)N(C(c1ccccc1)c1ccccc1)[C@@H]1COCCN1C2=O`: in [1], the result was Active. In addition, the Activity is reported as 80% in [2], “Non-Toxic” in data set [12], “Non-Toxic” in data set [24] and 80% in data set [14]. The figures for the AUC in data set [17], in [22] and in data set [25] were 34838 ng·h/g, 44252 ng·h/g and 3385 ng·h/mL, respectively. For the same molecule, the Cmax was found to be 1251 ng/mL in data set [18], 3431 ng/g in [21] and 951 ng/g in data set [23]. The Tmax (commonly the time at which the peak concentration occurs) in data set [19] was 0.5 h. Besides, in [20], the Ratio was determined as 18. Further, the values for the fraction unbound at 4 h, 1 µM in data set [4], in data set [10] and in data set [16] were 0.016, 0.01 and 0.009, respectively. In addition, the remaining at 4 h, 1 µM in [8] was 93.7%; in data set [13] it was 94.8%. Further, in data set [26], the AUClast turned out to be 3935 ng·h/mL. Further, in data set [27], the “Ratio AUC” value was 0.82.
